{
  "source": "ChEMBL document CHEMBL5104146",
  "about": "“Anti-inflammatory and anticancer p-terphenyl derivatives from fungi of the genus Thelephora” (Bioorg Med Chem, 2022)",
  "key": {"HepG2": {"system": "HepG2", "assay": "Antiproliferative activity against human HepG2 cells assessed as cell growth inhibition measured after 48 hrs", "format": "functional, cell-based", "details": "HepG2, 48 h"}, "[1]": {"assay": "Inhibition of TNF-alpha production in rat RBL-2H3 cells", "format": "functional, cell-based"}, "[2]": {"assay": "Inhibition of Saccharomyces cerevisiae alpha-glucosidase using pNPG as substrate preincubated for 10 mins followed by substrate addition measured after 15 mins by absorbance based microplate reader analysis"}, "[3]": {"assay": "Antioxidant activity assessed as DPPH radical scavenging activity measured after 30 mins under dark condition by microplate reader analysis", "format": "functional"}, "[4]": {"assay": "Antioxidant activity assessed as DPPH radical scavenging activity by absorbance based analysis", "format": "functional"}, "[5]": {"assay": "Inhibition of Staphylococcus aureus FabK using t-o-NAC as substrate in presence of NADPH by […]"}, "[6]": {"assay": "Inhibition of Escherichia coli FabK using t-o-NAC as substrate in presence of NADPH by […]"}, "[7]": {"assay": "Inhibition of Streptococcus pneumoniae FabK using t-o-NAC as substrate in presence of NADPH by […]"}, "[8]": {"assay": "Inhibition of 17beta-HSD1 (unknown origin)", "parameters": "species or system Homo sapiens"}, "L929": {"system": "L929", "assay": "Cytotoxicity against mouse L929 cells assessed as cell growth inhibition", "format": "functional, cell-based"}, "KB 3-1": {"system": "KB 3-1", "assay": "Cytotoxicity against human KB 3-1 cells assessed as cell growth inhibition", "format": "functional, cell-based"}},
  "data": [
    {"smiles": "O=C(Cc1ccccc1)Oc1c(OC(=O)c2ccccc2)c(-c2ccc(O)cc2)c(O)c(O)c1-c1ccc(O)cc1", "values": [
      {"measurement": "IC50", "setting": "HepG2", "result": 7, "unit": "µM"}
    ]},
    {"smiles": "O=C(Oc1c(O)c(-c2ccc(O)cc2)c(OC(=O)c2ccc(O)cc2)c(O)c1-c1ccc(O)cc1)c1ccc(O)cc1", "values": [
      {"measurement": "IC50", "setting": "[1]", "result": 3.5, "unit": "nM"}
    ]},
    {"smiles": "COC1=C(c2ccc(O)cc2)C(=O)C(OC(=O)c2ccccc2)=C(c2ccc(O)cc2)C1=O", "values": [
      {"measurement": "IC50", "setting": "[2]", "result": 18.8, "unit": "µM"},
      {"measurement": "EC50", "setting": "[3]", "result": 150, "unit": "µM"}
    ]},
    {"smiles": "O=C1O[C@H]([C@@H](O)CO)C(O)=C1O", "note": "[ASCORBIC ACID]", "values": [
      {"measurement": "EC50", "setting": "[4]", "result": 0.27, "unit": "µM"}
    ]},
    {"smiles": "O=C1C(O)=C(c2ccc(O)cc2)C(=O)C(O)=C1c1ccc(O)cc1", "values": [
      {"measurement": "IC50", "setting": "[5]", "result": "> 200", "unit": "µM"},
      {"measurement": "IC50", "setting": "[6]", "result": "> 200", "unit": "µM"},
      {"measurement": "IC50", "setting": "[7]", "result": 0.24, "unit": "µM"},
      {"measurement": "EC50", "setting": "[8]", "result": "> 100", "unit": "µM"}
    ]},
    {"smiles": "O=C(Oc1c(O)c(-c2ccc(O)cc2)c(OC(=O)c2ccccc2)c(O)c1-c1ccc(O)cc1)c1ccccc1", "values": [
      {"measurement": "IC50", "setting": "[2]", "result": "> 50", "unit": "µM"}
    ]},
    {"smiles": "O=C1C(O)=C(c2ccc(O)c(O)c2)C(=O)C(O)=C1c1ccc(O)cc1", "values": [
      {"measurement": "IC50", "setting": "L929", "result": 17, "unit": "µM"},
      {"measurement": "IC50", "setting": "[7]", "result": 1.57, "unit": "µM"},
      {"measurement": "IC50", "setting": "KB 3-1", "result": 7, "unit": "µM"}
    ]},
    {"smiles": "O=C(Cc1ccccc1)Oc1c(O)c(-c2ccc(O)cc2)c(OC(=O)c2ccc(O)cc2)c(O)c1-c1ccc(O)cc1", "values": [
      {"measurement": "EC50", "setting": "[4]", "result": 0.028, "unit": "µM"}
    ]},
    {"smiles": "O=C(Oc1c(OC(=O)c2ccccc2)c(-c2ccc(O)cc2)c(OC(=O)c2ccccc2)c(O)c1-c1ccc(O)cc1)c1ccccc1", "values": [
      {"measurement": "IC50", "setting": "[2]", "result": 4.53, "unit": "µM"}
    ]},
    {"smiles": "CC(=O)Oc1c(OC(=O)c2ccccc2)c(-c2ccc(O)cc2)c(O)c(O)c1-c1ccc(O)cc1", "values": [
      {"measurement": "IC50", "setting": "[2]", "result": 0.99, "unit": "µM"}
    ]},
    {"smiles": "CC(=O)Oc1c(OC(=O)c2ccccc2)c(-c2ccc(O)cc2)c(OC(=O)c2ccccc2)c(OC(=O)c2ccccc2)c1-c1ccc(O)cc1", "values": [
      {"measurement": "IC50", "setting": "[2]", "result": 2.98, "unit": "µM"}
    ]},
    {"smiles": "O=C(Cc1ccccc1)Oc1c(OC(=O)Cc2ccccc2)c(-c2ccc(O)cc2)c(O)c(O)c1-c1ccc(O)cc1", "note": "[VIALININ A]", "values": [
      {"measurement": "IC50", "setting": "[1]", "result": 0.02, "unit": "nM"},
      {"measurement": "IC50", "setting": "HepG2", "result": 7, "unit": "µM"}
    ]}
  ]
}
